Measurements published in US20040038222A1 (priority 2001, published 2004).

Columns and labels:
KiflC in NIH3T3 cells = conditions: cited from earlier work
[1] = system: C57BL/6J and C3H/HeJ primary bone marrow-derived macrophages

KiflC in NIH3T3 cells, sequence (O35071 whole entry): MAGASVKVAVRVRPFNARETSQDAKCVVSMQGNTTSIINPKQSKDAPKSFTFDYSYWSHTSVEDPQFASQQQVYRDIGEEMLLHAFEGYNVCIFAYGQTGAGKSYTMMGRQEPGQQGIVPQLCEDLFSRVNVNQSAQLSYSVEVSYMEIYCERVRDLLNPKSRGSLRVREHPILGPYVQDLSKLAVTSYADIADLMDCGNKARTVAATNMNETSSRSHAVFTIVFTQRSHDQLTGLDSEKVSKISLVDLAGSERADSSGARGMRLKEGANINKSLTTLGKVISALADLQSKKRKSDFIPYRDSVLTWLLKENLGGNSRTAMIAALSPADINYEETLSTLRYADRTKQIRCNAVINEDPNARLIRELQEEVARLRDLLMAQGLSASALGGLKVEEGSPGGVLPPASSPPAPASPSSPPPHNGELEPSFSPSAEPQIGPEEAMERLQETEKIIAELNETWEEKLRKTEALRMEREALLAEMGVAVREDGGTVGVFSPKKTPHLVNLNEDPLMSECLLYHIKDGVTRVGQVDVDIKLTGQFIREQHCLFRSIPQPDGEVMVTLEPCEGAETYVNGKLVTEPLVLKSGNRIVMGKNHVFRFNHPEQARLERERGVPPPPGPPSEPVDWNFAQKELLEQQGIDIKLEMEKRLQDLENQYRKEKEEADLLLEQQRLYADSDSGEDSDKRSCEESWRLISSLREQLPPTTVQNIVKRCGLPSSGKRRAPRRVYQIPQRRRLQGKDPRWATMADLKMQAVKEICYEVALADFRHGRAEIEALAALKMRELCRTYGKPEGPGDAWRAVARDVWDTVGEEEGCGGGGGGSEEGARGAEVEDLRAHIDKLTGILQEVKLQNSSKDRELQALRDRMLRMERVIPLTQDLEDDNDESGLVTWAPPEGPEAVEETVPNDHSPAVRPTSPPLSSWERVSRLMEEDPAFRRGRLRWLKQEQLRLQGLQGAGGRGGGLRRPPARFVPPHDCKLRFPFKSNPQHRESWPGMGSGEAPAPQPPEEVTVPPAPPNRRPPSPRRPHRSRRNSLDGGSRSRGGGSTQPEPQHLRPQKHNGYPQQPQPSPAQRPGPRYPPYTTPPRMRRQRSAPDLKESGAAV

## brefeldin A [BFA]
KiflC in NIH3T3 cells
  Relocalization of KiflC: dramatic relocalization of KiflC to the Endoplasmic Reticulum
[1]
  Susceptibility of susceptible macrophages to intoxication with LF in the presence of BFA: unaltered
